From US4340602A, “Compositions inhibiting estrogen sulfotransferase activity” (Wayne State University, priority 1978, dated 1982)
Values joined by “and” are separate entries in the source; they are usually repeats but may differ in a detail not shown here. Identical values can stand only once. Like-named read-outs stand apart in the source and are kept apart here.

Key:
human endometrium = experiment: Oxidation and sulfurylation of tritiated E2 by human endometrial curettings; type: in vitro ADME; conditions: 0.003 µM
Method: (§1) Radioisotopes. [6,7-^3 H]E2 and [2,4,6,7-^3 H]E2 were obtained from New England Nuclear Corp., Boston, Mass., and purified on ITLC-SA (Gelman Instrument Co.) with CHCl3 :CH3 OH (97:3) as the developing solvent. Na2^35 SO4 was obtained from New England Nuclear Corp. and used directly from the bottle.
(§2) Human endometria. Endometrial specimens (60-1500 mg) were gathered from the operating room at the time of surgery and placed in 0.9% saline solution on ice. Most patients (22) were young women undergoing tubal ligations for the purpose of sterilization, two patients were having IUD's removed and eight patients (hysterectomies and laparoscopies) had normal endometria upon histological examination. All had had at least one pregnancy, had no endocrine problems, were cycling normally and were not taking any drugs, except for two patients on Librium® and two on Aldoril®. Ages ranged from 23 to 48 years, the average being 31±5 years.
(§3) Metabolism. Amounts varying from 55 to 400 mg of endometrium were incubated in 2.5 ml of modified bicarbonate buffer with 10 μl of [6,7-^3 H]E2 (3×10^-9 M) and 100 μl of Na2^35 SO4 (1×10^-4 M). The remainder of the procedure was the same as described for gilt uterus in Example 2

[1] = as above; type: in vitro ADME; conditions: human, endometrium, Table IV, 2 h, 3×10^-9 M E2
Method: as §1, §2, §3

[2] = biological target: T1, Bovine Adrenal Estrogen Sulfotransferase (Bos taurus, UniProt P19217); experiment: Inhibition of bovine adrenal estrogen sulfotransferase (estrone sulfurylation); type: biochemical
T1 construct: The enzyme was isolated from the bovine adrenals; from tissue; host or cells: bovine adrenals; purified by ammonium sulfate fractionation and chromatography on DEAE-cellulose or DEAE-Sephadex A-50
T1 sequence (P19217 1-295): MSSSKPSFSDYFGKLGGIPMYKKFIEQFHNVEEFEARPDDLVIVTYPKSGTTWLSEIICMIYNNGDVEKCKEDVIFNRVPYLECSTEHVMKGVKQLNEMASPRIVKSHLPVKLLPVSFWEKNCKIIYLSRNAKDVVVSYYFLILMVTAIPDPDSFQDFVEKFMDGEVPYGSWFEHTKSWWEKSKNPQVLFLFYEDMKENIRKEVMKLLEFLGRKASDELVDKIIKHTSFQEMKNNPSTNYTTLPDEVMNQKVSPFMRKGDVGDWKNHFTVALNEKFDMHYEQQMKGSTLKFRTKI
Method: Materials are evaluated for activity as estrogen sulfotransferase inhibitors by the method of Rozhin et al, Journal of Biological Chemistry, 252:7214-7220 (October 25, 1977), herein incorporated by reference.
Isolation of Estrogen Sulfotransferase (EC 2.8.2.4). The enzyme was isolated from the bovine adrenals and purified by ammonium sulfate fractionation and column chromatography on DEAE-cellulose or DEAE-SephadexA-50 [Rozhin et al (1974)].
Standard Enzyme Assay. The incubation mixtures contained the following in a total volume of 0.2 ml: 0.4 mM P-Ado-PS; 2 to 23 μM estrone (3-hydroxy-1,3,5(10)-estratriene-17-one), 5×10^5 dpm of [6,7-^3 H]estrone; 5 mM magnesium acetate; 0.19 M Tris/HCl buffer (pH 8.1 at 37°); 5 ug of the enzyme; and 25 μM dithiothreitol. After a 10-min incubation (in the presence of a constant amount of inhibitor and a variable amount of estrone), the boiled mixtures were supplemented with 5 μg of aqueous estrone sulfate. The remaining [^3 H]estrone was extracted three times with 0.3 ml of ethyl ether. The residual ether was removed and the volume adjusted to 0.5 ml with methanol. A sample (25 μl) was applied, together with 10 μg of methanolic estrone sulfate marker, to type SG chromatography media (Gelman Instrument Co., Ann Arbor, Mich.), and developed with chloroform/acetone/acetic acid (110:35:6). After drying the sheet, samples were visualized by spraying with methylene blue (25 mg in 100 ml of 0.05 N H2 SO4), punched out with a cork borer, and counted in 10 ml of dioxane counting liquid. A blank employing a boiled enzyme sample was incubated and the recorded counts were substracted from each determination. The total corrected counts, representing steroid sulfate ester, were converted to nanomoles utilizing the specific activity of [^3 H]estrone. An enzyme unit was defined as that quantity of enzyme which synthesized 1 nmol of estrone sulfate in 1 min under chosen conditions. […] When nonsubstrate steroids were used as the inhibitors, the procedure for the enzyme assay was as described earlier [Rozhin et al (1974)], utilizing 5 μg of enzyme, P-Ado-[^35 S]PS, and unlabeled estrone.
Data Processing. The initial velocity analysis was carried out keeping the concentration of P-Ado-PS at saturation level, varying the estrone concentration and keeping the concentration of the inhibitor at a fixed level. Preliminary plots of the data were made in the double reciprocal form (l/v versus l/[S]), and in the form of replots of slopes (and intercepts) versus inhibitor concentration. On the basis of these plots, the proper inhibition pattern was chosen for each experiment and the data points were fitted to the appropriate equation.
Linear competitive inhibition: [formula]
Hyperbolic competitive inhibition: [formula]
Slope-parabolic non-competitive inhibition: [formula]
All calculations were performed using Cleland's Fortran programs (Adv. Enzymol., 29:1-32). The programs gave the values of Km, Vmax, and inhibition constants.
Fractional Inhibition. From kinetic experiments, Ki was calculated as described above under "Data Processing" after making replots of slopes (and/or intercepts) versus inhibitor concentration. […] Substituting v and vi from the corresponding rate equations in the absence of (v=(Vmax [S])/(Km +[S])) and presence of a (competitive) inhibition (Equation 1), the following relationship for FI is obtained: [formula] After substituting [S], Km, and [I] (see above), the equation for the fractional (competitive) inhibition simplifies to: [formula] and the mathematical relationship between FI and Ki of competitive inhibitors is represented by the continuous curve in FIG. 2 in Rozhin et al., J. Biol. Chem., 252, 7214-7220, 1977. The dashed line represents the relationship between FI and the Ki of pure noncompetitive inhibition derived mathematically in an analogous manner and expressed as [formula] Since [I]=22.2 μM, [formula]

- Percent of tritiated E2 oxidized to estrone (E1 + E1 sulfate), secretory (human endometrium; Table IV, secretory day 24, 60, 120, 300 mg tissue by row, 2 h, 3×10^-9 M E2, listed as E2, 120 min): 82%
- oxidation of labeled E2 to E1 plus E1 sulfate, days 14 and 15 (human endometrium; same three endometrial curettings, days 14 and 15, listed as E2, 0.003 µM): 70% and 75% and 93%
- metabolised at 2 h, 0.003 µM ([1]; secretory day 24, 60, 120, 300 mg tissue by row, read-out: Percent of tritiated E2 oxidized to estrone (E1 + E1 sulfate), secretory): 78%
- Ki ([2]; inhibitors 3 to 6, 12 and 16, from kinetic experiments, read-out: Ki (Table I), determined experimentally): 6.1 µM
- inhibition at 22.2 µM ([2]; pH 8.1, read-out: Fractional Inhibition (Table I)): 68%
Structure (SMILES): C[C@]12CC[C@@H]3c4ccc(O)cc4CC[C@H]3[C@@H]1CC[C@@H]2O [1,3,5(10)Estratriene-3,17β-diol]
- Percent of tritiated E2 sulfurylated, proliferative (human endometrium; Table IV, proliferative days 4-7, 55, 118, 329 mg tissue by row, 2 h, 3×10^-9 M E2): 0%
- Percent of tritiated E2 oxidized to estrone, proliferative (human endometrium; Table IV, proliferative days 4-7, 55, 118, 329 mg tissue by row, 2 h, 3×10^-9 M E2, listed as E2, 120 min): 47% and 45%
- metabolised at 2 h, 0.003 µM ([1]; proliferative days 4-7, 55, 118, 329 mg tissue by row, read-out: Percent of tritiated E2 oxidized to estrone, proliferative): 29%
